Reference: PubChem BioAssay AID250 (DTP/NCI, 2004)
Where “and” joins values, the source holds several entries; their conditions need not be identical. Equal values may be shown once. Inconclusive results and toxic doses are left out.

Tested on: BDF1 mice, L1210 leukemia sc, survival T/C
Assay: NCI In Vivo Anticancer Drug Screen. Data for tumor model L1210 Leukemia (subcutaneous) in B6D2F1 (BDF1) mice
Settings: higher = longer survival
How it was run: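 Transplantable tumor-bearing mice; survival or tumor size recorded; result = T/C, treated vs vehicle control.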

## O=P1(N(CCCl)CCCl)NCCCO1 (centres undefined)
endpoint: mean survival time, dose: 70.0 mg/kg/injection, schedule: Q01DX001 (ip), vehicle: saline
  T/C: 161 % of control
endpoint: mean survival time, dose: 100.0 mg/kg/injection, schedule: Q08DX003 (sc), vehicle: saline
  T/C: 190 % of control
endpoint: mean survival time, dose: 140.0 mg/kg/injection, schedule: Q01DX001 (ip), vehicle: saline
  T/C: 180 % of control
endpoint: mean survival time, dose: 200.0 mg/kg/injection, schedule: Q01DX001 (ip), vehicle: saline
  T/C: 219 % of control
endpoint: mean survival time, dose: 200.0 mg/kg/injection, schedule: Q08DX003 (sc), vehicle: saline
  T/C: 221 % of control
endpoint: mean survival time, dose: 280.0 mg/kg/injection, schedule: Q01DX001 (ip), vehicle: saline
  T/C: 232 % of control
endpoint: mean survival time, dose: 400.0 mg/kg/injection, schedule: Q08DX003 (sc), vehicle: saline
  T/C: 171 % of control
endpoint: mean survival time, dose: 560.0 mg/kg/injection, schedule: Q01DX001 (ip), vehicle: saline
  T/C: 91 % of control
endpoint: median survival time, dose: 6.25 mg/kg/injection, schedule: Q01DX009 (ip), vehicle: saline
  T/C: 104 % of control
endpoint: median survival time, dose: 6.25 mg/kg/injection, schedule: Q01DX009 (sc), vehicle: saline
  T/C: 98 % of control and 101 % of control
endpoint: median survival time, dose: 8.4 mg/kg/injection, schedule: Q01DX Z (ip), vehicle: saline
  T/C: 100 % of control
endpoint: median survival time, dose: 10.8 mg/kg/injection, schedule: Q01DX001 (ip), vehicle: saline
  T/C: 150 % of control
endpoint: median survival time, dose: 12.5 mg/kg/injection, schedule: Q01DX009 (sc), vehicle: saline
  T/C: 107 % of control and 112 % of control
endpoint: median survival time, dose: 14.0 mg/kg/injection, schedule: Q01DX Z (ip), vehicle: saline
  T/C: 110 % of control and 117 % of control
endpoint: median survival time, dose: 14.0 mg/kg/injection, schedule: Q01DX Z (oral), vehicle: saline
  T/C: 104 % of control
endpoint: median survival time, dose: 14.0 mg/kg/injection, schedule: Q01DX Z (sc), vehicle: other
  T/C: 110 % of control
endpoint: median survival time, dose: 14.0 mg/kg/injection, schedule: Q#A X Z (sc), vehicle: saline
  T/C: 220 % of control
endpoint: median survival time, dose: 18.0 mg/kg/injection, schedule: Q01DX001 (ip), vehicle: saline
  T/C: 200 % of control
endpoint: median survival time, dose: 23.0 mg/kg/injection, schedule: Q01DX Z (ip), vehicle: saline
  T/C: 165 % of control
endpoint: median survival time, dose: 23.0 mg/kg/injection, schedule: Q01DX Z (oral), vehicle: saline
  T/C: 120 % of control
endpoint: median survival time, dose: 23.0 mg/kg/injection, schedule: Q01DX Z (sc), vehicle: other
  T/C: 195 % of control
endpoint: median survival time, dose: 23.0 mg/kg/injection, schedule: Q## X Z (sc), vehicle: saline
  T/C: 110 % of control
endpoint: median survival time, dose: 25.0 mg/kg/injection, schedule: Q01DX009 (ip), vehicle: saline
  T/C: 122 % of control
endpoint: median survival time, dose: 39.0 mg/kg/injection, schedule: Q01DX Z (ip), vehicle: saline
  T/C: 243 % of control
endpoint: median survival time, dose: 39.0 mg/kg/injection, schedule: Q01DX Z (oral), vehicle: saline
  T/C: 155 % of control and 215 % of control and 221 % of control
endpoint: median survival time, dose: 39.0 mg/kg/injection, schedule: Q02DX Z (sc), vehicle: saline
  T/C: 225 % of control
endpoint: median survival time, dose: 39.0 mg/kg/injection, schedule: Q07DX Z (sc), vehicle: saline
  T/C: 113 % of control and 115 % of control and 123 % of control
endpoint: median survival time, dose: 39.0 mg/kg/injection, schedule: Q## X Z (sc), vehicle: saline
  T/C: 150 % of control
endpoint: median survival time, dose: 39.0 mg/kg/injection, schedule: Q#A X Z (sc), vehicle: saline
  T/C: 230 % of control
endpoint: median survival time, dose: 50.0 mg/kg/injection, schedule: Q01DX009 (ip), vehicle: saline
  T/C: 162 % of control
endpoint: median survival time, dose: 50.0 mg/kg/injection, schedule: Q01DX009 (sc), vehicle: saline
  T/C: 163 % of control and 181 % of control
endpoint: median survival time, dose: 50.0 mg/kg/injection, schedule: Q08DX003 (sc), vehicle: saline
  T/C: 122 % of control
endpoint: median survival time, dose: 65.0 mg/kg/injection, schedule: Q01DX Z (ip), vehicle: saline
  T/C: 213 % of control
endpoint: median survival time, dose: 65.0 mg/kg/injection, schedule: Q01DX Z (oral), vehicle: saline
  T/C: 161 % of control and 182 % of control
endpoint: median survival time, dose: 65.0 mg/kg/injection, schedule: Q01DX Z (sc), vehicle: other
  T/C: 240 % of control
endpoint: median survival time, dose: 65.0 mg/kg/injection, schedule: Q07DX Z (sc), vehicle: saline
  T/C: 165 % of control and 175 % of control
endpoint: median survival time, dose: 65.0 mg/kg/injection, schedule: Q#A X Z (sc), vehicle: saline
  T/C: 150 % of control
endpoint: median survival time, dose: 69.0 mg/kg/injection, schedule: Q07DX003 (sc), vehicle: saline
  T/C: 188 % of control and 190 % of control
endpoint: median survival time, dose: 100.0 mg/kg/injection, schedule: Q07DX003 (sc), vehicle: saline
  T/C: 244 % of control
endpoint: median survival time, dose: 100.0 mg/kg/injection, schedule: Q07DX004 (sc), vehicle: saline
  T/C: 211 % of control and 213 % of control
endpoint: median survival time, dose: 100.0 mg/kg/injection, schedule: Q16DX002 (sc), vehicle: saline
  T/C: 157 % of control and 161 % of control (2×)
endpoint: median survival time, dose: 100.0 mg/kg/injection, schedule: Q## X002 (sc), vehicle: saline
  T/C: 155 % of control
endpoint: median survival time, dose: 108.0 mg/kg/injection, schedule: Q01DX001 (sc), vehicle: other
  T/C: 160 % of control
endpoint: median survival time, dose: 108.0 mg/kg/injection, schedule: Q01DX014 (sc), vehicle: saline
  T/C: 163 % of control
endpoint: median survival time, dose: 108.0 mg/kg/injection, schedule: Q01DX Z (ip), vehicle: saline
  T/C: 113 % of control
endpoint: median survival time, dose: 108.0 mg/kg/injection, schedule: Q01DX Z (oral), vehicle: saline
  T/C: 208 % of control and 240 % of control
endpoint: median survival time, dose: 108.0 mg/kg/injection, schedule: Q01DX Z (sc), vehicle: other
  T/C: 180 % of control
endpoint: median survival time, dose: 108.0 mg/kg/injection, schedule: Q07DX Z (sc), vehicle: saline
  T/C: 171 % of control
endpoint: median survival time, dose: 108.0 mg/kg/injection, schedule: Q08DX003 (ip), vehicle: saline
  T/C: 109 % of control
endpoint: median survival time, dose: 180.0 mg/kg/injection, schedule: Q01DX001 (sc), vehicle: other
  T/C: 191 % of control
endpoint: median survival time, dose: 180.0 mg/kg/injection, schedule: Q01DX014 (sc), vehicle: saline
  T/C: 217 % of control
endpoint: median survival time, dose: 180.0 mg/kg/injection, schedule: Q02DX Z (sc), vehicle: saline
  T/C: 170 % of control
endpoint: median survival time, dose: 180.0 mg/kg/injection, schedule: Q07DX Z (sc), vehicle: saline
  T/C: 195 % of control and 226 % of control
endpoint: median survival time, dose: 180.0 mg/kg/injection, schedule: Q08DX003 (ip), vehicle: saline
  T/C: 121 % of control
endpoint: median survival time, dose: 200.0 mg/kg/injection, schedule: Q01DX001 (ip), vehicle: saline
  T/C: 200 % of control and 205 % of control
endpoint: median survival time, dose: 200.0 mg/kg/injection, schedule: Q16DX002 (sc), vehicle: saline
  T/C: 183 % of control and 206 % of control (2×)
endpoint: median survival time, dose: 200.0 mg/kg/injection, schedule: Q## X002 (sc), vehicle: saline
  T/C: 180 % of control
endpoint: median survival time, dose: 256.0 mg/kg/injection, schedule: Q01DX001 (sc), vehicle: saline
  T/C: 213 % of control and 215 % of control
endpoint: median survival time, dose: 300.0 mg/kg/injection, schedule: Q01DX001 (ip), vehicle: saline
  T/C: 240 % of control and 242 % of control
endpoint: median survival time, dose: 300.0 mg/kg/injection, schedule: Q01DX001 (sc), vehicle: other
  T/C: 243 % of control
endpoint: median survival time, dose: 300.0 mg/kg/injection, schedule: Q01HX002 (ip), vehicle: saline
  T/C: 113 % of control
endpoint: median survival time, dose: 300.0 mg/kg/injection, schedule: Q07DX Z (sc), vehicle: saline
  T/C: 217 % of control and 219 % of control
endpoint: median survival time, dose: 300.0 mg/kg/injection, schedule: Q08DX003 (ip), vehicle: saline
  T/C: 113 % of control
endpoint: median survival time, dose: 300.0 mg/kg/injection, schedule: Q16DX002 (ip), vehicle: saline
  T/C: 115 % of control
endpoint: median survival time, dose: 320.0 mg/kg/injection, schedule: Q01DX001 (sc), vehicle: saline
  T/C: 235 % of control and 240 % of control
endpoint: median survival time, dose: 400.0 mg/kg/injection, schedule: Q07DX004 (sc), vehicle: saline
  T/C: 166 % of control
endpoint: median survival time, dose: 400.0 mg/kg/injection, schedule: Q16DX002 (sc), vehicle: saline
  T/C: 222 % of control and 239 % of control (2×)
endpoint: median survival time, dose: 400.0 mg/kg/injection, schedule: Q## X002 (sc), vehicle: saline
  T/C: 220 % of control
endpoint: median survival time, dose: 500.0 mg/kg/injection, schedule: Q01DX001 (sc), vehicle: other
  T/C: 217 % of control
